Data from patent US20170360780A1, “PHARMACEUTICAL COMPOSITION COMPRISING BICYCLIC NITROGEN-CONTAINING AROMATIC HETEROCYCLIC AMIDE COMPOUND AS ACTIVE INGREDIENT” (Astellas Pharma Inc., priority 2014, published 2017).

Key:
[1] = tested on: KMS-12-BM cells; assay: Test Example 6: combination use with lenalidomide, nude mice bearing KMS-12-BM tumors; type: in vivo, human; conditions: for Anti-tumor effect of combination use with lenalidomide versus single administration: mice bearing tumors of human myeloma, combination use of lenalidomide and compound; for Rate of tumor regression / Inhibition rate of tumor growth: KMS-12-BM, nude mice, 14 days, next day of final administration
Method: KMS-12-BM cells derived from human myeloma were prepared at 5×10^7 cells/mL of a mixed solution of PBS and Matrigel (registered trademark) in 1:1 ratio, and 0.1 mL was implanted to CAnN.Cg-Foxn1^nu/CrlCrlj mice (4- to 5-week-old male nude mice, Charles River Laboratories Japan, Inc.) under the skin on the back (5×10^6 cells/head). Dividing into groups by the tumor volume was performed when tumor cells were engrafted under the skin and the average tumor volume exceeded approximately 200 mm^3. […] The test compound dissolved in 6% cyclodextrin aqueous solution was orally administered by the dosage of 8 mg/kg or 1 mg/kg once a day for 14 days continuously. Lenalidomide (MedChemExpress.) was suspended in 6% cyclodextrin aqueous solution and was orally administered by the dosage of 100 mg/kg once a day for 14 days continuously. The inhibition rate of tumor growth and the rate of tumor regression in each group on the next day of the final administration were calculated by using the formula below.
(§1) [Tumor volume (mm^3)]=[major axis of tumor (mm)]×[minor axis of tumor (mm)]^2×0.5
(§2) Inhibition rate of tumor growth (%)=(1−average of tumor volume growth in each group/average of tumor volume growth in control group)×100
Rate of tumor regression (%)=(1−average tumor volume in each group on measuring day/average tumor volume in each group when starting administration)×100
The inhibition rate of tumor growth and the rate of tumor regression in each group on the next day of the final administration is shown in Table 6.

[2] = tested on: KMS-12-BM cells; assay: Test Example 3: anti-tumor test on nude mice bearing KMS-12-BM human myeloma tumors; type: in vivo; conditions: 8 mg/kg oral once a day, 21 days, next day of final administration
Method: (§3) KMS-12-BM cells (purchased) or OPM-2 cells (purchased) derived from human myeloma were prepared at 5×10^7 cells/mL of a mixed solution of PBS and Matrigel (registered trademark) in 1:1 ratio, and 0.1 mL was implanted to CAnN.Cg-Foxn1^nu/CrlCrlj mice (4-week-old male nude mice, Charles River Laboratories Japan, Inc.) under the skin on the back (5×10^6 cells/head). Dividing into groups by the tumor volume was performed when tumor cells were engrafted and the average tumor volume exceeded approximately 300 mm^3 (5 mice for each group). The test compound dissolved in 6% cyclodextrin aqueous solution (Sigma-Aldrich Co.) was orally administered by the dosage of 8 mg/kg once a day for 21 days in the test using KMS-12-BM cells, and for 7 days in the test using OPM-2 cells, respectively. 6% Cyclodextrin aqueous solution was orally administered for a solvent group (control group) once a day.
(§4) The body weight and the tumor diameter were measured twice a week, and the anti-tumor effect and the effect on the body weight were examined. For calculation of the tumor volume, the formula below was used.
as §1
(§5) The inhibition rate of tumor growth and the rate of tumor regression were calculated from the average value of the tumor volume according to the formula below. […]

[3] = tested on: KMS-12-BM cells; assay: Test Example 4: anti-tumor test on nude mice bearing KMS-12-BM human myeloma tumors; type: in vivo; conditions: 17 days, next day of final administration
Excerpt: (§6) KMS-12-BM cells and RPMI 8226 cells which are derived from human myeloma were respectively purchased from JCRB cell bank (National Institutes of Biochemical Innovation, Health and Nutrition), and ATCC. KMS-12-BM cells were implanted to CAnN.Cg-Foxn1^nu/CrlCrlj mice (4- to 5-week-old male nude mice, Charles River Laboratories Japan, Inc.), and RPMI 8226 cells to CB17/Icr-Prkdc^scid/CrlCrlj mice (4- to 5-week-old male SCID mice, Charles River Laboratories Japan, Inc.), respectively. Each of tumor cells were prepared at 5×10^7 cells/mL of a mixed solution of PBS and Matrigel (registered trademark) in 1:1 ratio, and 0.1 mL was implanted to the mice under the skin on the back (5×10^6 cells/head). Dividing into groups by the tumor volume was performed when tumor cells were engrafted under the skin and the average tumor volume exceeded approximately 150 mm^3 (5 mice for each group). The test compound dissolved in 6% cyclodextrin aqueous solution (Sigma-Aldrich Co.) was orally administered by the dosage of 8 mg/kg or 1 mg/kg once a day. 6% Cyclodextrin aqueous solution was also orally administered for the solvent group (control group) once a day. Oral administration was performed continuously for 17 days for KMS-12-BM cells, and 18 days for RPMI 8226 cells. The inhibition rate of tumor growth and the rate of tumor regression on the next day of the final administration were calculated by using the formula below.
as §1, §2
(§7) Rate of tumor regression (%)=(1−average tumor volume in each group on measuring day/average tumor volume in each group when dividing groups)×100

[4] = tested on: KMS-12-BM cells; assay: Test Example 5: combination use with lenalidomide, nude mice bearing KMS-12-BM tumors; type: in vivo, human; conditions: 27 days, next day of final administration
Method: KMS-12-BM cells derived from human myeloma were prepared at 2.8×10^7 cells/mL of a mixed solution of PBS and Matrigel (registered trademark) in 1:1 ratio, and 0.1 mL was implanted to CAnN.Cg-Foxn1^nu/CrlCrlj mice (4-week-old male nude mice, Charles River Laboratories Japan, Inc.) under the skin on the back (2.8×10^6 cells/head). Dividing into groups by the tumor volume was performed when tumor cells were engrafted and the average tumor volume exceeded approximately 200 mm^3, and 5 mice were set for each group. The test compound dissolved in 6% cyclodextrin aqueous solution was orally administered by the dosage of 2 mg/kg once a day for 27 days. Lenalidomide (MedChemExpress.) was suspended in 6% cyclodextrin aqueous solution and was orally administered by the dosage of 100 mg/kg once a day for 27 days. The dosage of 2 mg/kg of the test compound and 100 mg/kg of lenalidomide were orally administered for a combination administered group once a day, respectively. 6% Cyclodextrin aqueous solution was orally administered for the solvent group (control group) once a day. The body weight and the tumor diameter were measured twice a week, and the anti-tumor effect and the effect on the body weight were examined. For calculation of the tumor volume, the formula below was used.
as §1
The inhibition rate of tumor growth and the rate of tumor regression were calculated from the average value of the average tumor volume according to the formula below.
as §2, §7

[5] = tested on: RPMI 8226 cells; assay: Test Example 3: anti-tumor test on SCID mice bearing RPMI 8226 human myeloma tumors; type: in vivo; conditions: RPMI 8226, SCID mice, 8 mg/kg oral once a day, 21 days; next day of final administration
Method: RPMI 8226 cells (purchased) derived from human myeloma were prepared at 5×10^7 cells/mL of a mixed solution of PBS and Matrigel (registered trademark) in 1:1 ratio, and 0.1 mL was implanted to CB17/Icr-Prkdc^scid/CrlCrlj mice (5-week-old male SCID mice, Charles River Laboratories Japan, Inc.) under the skin on the back (5×10^6 cells/head). Dividing into groups by the tumor volume was performed when tumor cells were engrafted and the average tumor volume exceeded approximately 150 mm^3 (5 mice for each group). The test compound dissolved in 6% cyclodextrin aqueous solution was orally administered by the dosage of 8 mg/kg once a day for 21 days continuously. 6% Cyclodextrin aqueous solution was orally administered for a solvent group (control group) once a day.
as §4, §1
The inhibition rate of tumor growth and the rate of tumor regression were calculated from the average value of the tumor volume according to the formula below.
Inhibition rate of tumor growth (%)=(1−average of tumor volume growth in each group/average of tumor volume growth in control group)×100 […]

[6] = tested on: OPM-2 cells; assay: Test Example 3: anti-tumor test on nude mice bearing OPM-2 human myeloma tumors; type: in vivo; conditions: OPM-2, nude mice, 8 mg/kg oral once a day, 7 days; next day of final administration
Method: as §3, §4, §1, §5

[7] = tested on: RPMI 8226 cells; assay: Test Example 4: anti-tumor test on SCID mice bearing RPMI 8226 human myeloma tumors; type: in vivo; conditions: RPMI 8226, SCID mice, 18 days, next day of final administration
Excerpt: as §6, §1, §2, §7

[8] = test compound 8 mg/kg + lenalidomide 100 mg/kg oral once a day
[9] = test compound 8 mg/kg + solvent, oral once a day
[10] = test compound 1 mg/kg + lenalidomide 100 mg/kg oral once a day
[11] = test compound 1 mg/kg + solvent, oral once a day

SMILES: COc1ccc(CN2CCC(c3ccc4[nH]c(C(=O)N5CCN(Cc6ccc(C(F)(F)F)cc6)CC5)nc4c3)CC2)cn1 [Compound A, (5-{1-[(6-methoxypyridin-3-yl)methyl]piperidin-4-yl}-1H-benzimidazol-2-yl) {4-[4-(trifluoromethyl)benzyl]piperazin-1-yl}methanone]
- Anti-tumor effect of combination use with lenalidomide versus single administration [1]: stronger anti-tumor effect than each single administration thereof

SMILES: CCOc1cnc(CN2CCC(c3ccc4cc(C(=O)N5CCN(Cc6ccc(C#N)cc6)CC5)n(C)c4c3)CC2)cn1 [Compound C, 4-({4-[(6-{1-[(5-ethoxypyrazin-2-yl)methyl]piperidin-4-yl}-1-methyl-1H-indol-2-yl)carbonyl]piperazin-1-yl}methyl)benzonitrile]
- Anti-tumor effect of combination use with lenalidomide versus single administration [1]: stronger anti-tumor effect than each single administration thereof

SMILES: COc1cnc(CN2CCC(c3ccc4[nH]c(C(=O)N5CCN(Cc6ccc(C(F)(F)F)cc6)CC5)nc4c3)CC2)cn1 [Compound B, (5-{1-[(5-methoxypyrazin-2-yl)methyl]piperidin-4-yl}-1H-benzimidazol-2-yl){4-[4-(trifluoromethyl)benzyl]piperazin-1-yl}methanone]
- Anti-tumor effect of combination use with lenalidomide versus single administration [1]: stronger anti-tumor effect than each single administration thereof

SMILES: COc1ccc(CN2CCC(c3ccc4[nH]c(C(=O)N5CCN(Cc6ccc(C(F)(F)F)cc6)CC5)nc4c3)CC2)cn1 [Compound A1, (5-{1-[(6-methoxypyridin-3-yl)methyl]piperidin-4-yl}-1H-benzimidazol-2-yl){4-[4-(trifluoromethyl)benzyl]piperazin-1-yl}methanone]
- Rate of tumor regression [2]: 100% regression
- Inhibition rate of tumor growth ([3]; 8 mg/kg oral once a day): 99% inhibition
- Rate of tumor regression ([4]; test compound 2 mg/kg + lenalidomide 100 mg/kg oral once a day): 100% regression
- Rate of tumor regression ([4]; test compound alone 2 mg/kg oral once a day): 24% regression
- Rate of tumor regression [1, 8]: 39% regression
- Inhibition rate of tumor growth [1, 9]: 100% inhibition
- Inhibition rate of tumor growth [5]: 97% inhibition
- Rate of tumor regression [6]: 17% regression
- Inhibition rate of tumor growth ([7]; 8 mg/kg oral once a day): 99% inhibition

SMILES: COc1cnc(CN2CCC(c3ccc4c(c3)cc(C(=O)N3CCN(Cc5ccc(C#N)cc5)CC3)n4C)CC2)cn1 [Compound D, 4-({4-[(5-{1-[(5-methoxypyrazin-2-yl)methyl]piperidin-4-yl}-1-methyl-1H-indol-2-yl)carbonyl]piperazin-1-yl}methyl)benzonitrile]
- Anti-tumor effect of combination use with lenalidomide versus single administration [1]: stronger anti-tumor effect than each single administration thereof

SMILES: COc1cnc(CN2CCC(c3ccc4c(c3)cc(C(=O)N3CCN(Cc5ccc(C#N)cc5)CC3)n4C)CC2)cn1 [Compound D1, 4-({4-[(5-{1-[(5-methoxypyrazin-2-yl)methyl]piperidin-4-yl}-1-methyl-1H-indol-2-yl)carbonyl]piperazin-1-yl}methyl)benzonitrile]
- Inhibition rate of tumor growth ([3]; 1 mg/kg oral once a day): 71% inhibition
- Inhibition rate of tumor growth [1, 10]: 74% inhibition
- Inhibition rate of tumor growth [1, 11]: 61% inhibition
- Inhibition rate of tumor growth ([7]; 1 mg/kg oral once a day): 75% inhibition

SMILES: Nc1cccc2c1CN(C1CCC(=O)NC1=O)C2=O (stereo not drawn) [Lenalidomide, lenalidomide, reference compound]
- Inhibition rate of tumor growth ([4]; lenalidomide alone 100 mg/kg oral once a day): 53% inhibition
- Inhibition rate of tumor growth ([1]; solvent + lenalidomide 100 mg/kg oral once a day): 21% inhibition

SMILES: CCOc1cnc(CN2CCC(c3ccc4cc(C(=O)N5CCN(Cc6ccc(C#N)cc6)CC5)n(C)c4c3)CC2)cn1 [Compound C1, 4-({4-[(6-{1-[(5-ethoxypyrazin-2-yl)methyl]piperidin-4-yl}-1-methyl-1H-indol-2-yl)carbonyl]piperazin-1-yl}methyl)benzonitrile]
- Rate of tumor regression ([3]; 1 mg/kg oral once a day): 68% regression
- Rate of tumor regression [1, 10]: 64% regression
- Rate of tumor regression [1, 11]: 40% regression
- Rate of tumor regression ([7]; 1 mg/kg oral once a day): 25% regression

SMILES: COc1cnc(CN2CCC(c3ccc4[nH]c(C(=O)N5CCN(Cc6ccc(C(F)(F)F)cc6)CC5)nc4c3)CC2)cn1 [Compound B1, (5-{1-[(5-methoxypyrazin-2-yl)methyl]piperidin-4-yl}-1H-benzimidazol-2-yl){4-[4-(trifluoromethyl)benzyl]piperazin-1-yl}methanone]
- Rate of tumor regression ([3]; 8 mg/kg oral once a day): 6% regression
- Rate of tumor regression [1, 8]: 42% regression
- Rate of tumor regression [1, 9]: 20% regression
- Rate of tumor regression ([7]; 8 mg/kg oral once a day): 4% regression
